In series [1] the test system is Micrococcus luteus ATCC 9341. As to the kind of experiment: In vitro antibacterial activity, agar dilution method (MIC). Format: cell-based. The following applies: 37° C., 18-20 hrs. The protocol: (§1) In vitro antibacterial activity was determined by the agar dilution method as described below.
(§2) One loopful of each test bacterium on a slant was inoculated into 1 ml of a growth medium (Trypto Soy Broth, Eiken Chemical Co.) and incubated at 37° C. for 18-20 hours. For the growth of Streptococci, Mueller-Hinton broth (Difco) supplemented with 3%(V/V) horse serum was employed. A hundred-fold dilution of the culture is used as an inoculum suspension of the bacterium.
(§3) The sample (9-10 mg) was weighed and dissolved in distilled water at a concentration of 2 mg/ml.
(§4) A sample solution was subjected to serial two fold dilutions with sterile water (2000-0.25 μg/ml). To sterile plastic petri dishes (9 cm in diameter) was poured 0.5 ml-aliquot of sample solutions, which was mixed with 9.5 ml of an agar medium (Sensitivity Test Agar, "Nissui"). For Streptococci, horse serum was supplied at 0.5%(V/V).
(§5) One loopful (1.0 μl) of the inoculum suspension was placed on the surface of the agar plates prepared as noted above. The bacterial growth was examined visually after overnight incubation (18-20 hrs) at 37° C.
(In general: In agar dilution the substance is mixed into plates at graded concentrations.)

The test system of series [2] is Staphylococcus aureus 3131 (methicillin resistant). Described as above. Format: cell-based. The following applies: 37° C., 18-20 hrs. The method, then: as §1, §2, §3, §4, §5
In series [3] the test system is Staphylococcus aureus ATCC 25923. The description is as above. Format: cell-based. The following applies: 37° C., 18-20 hrs. The protocol: as §1, §2, §3, §4, §5
Series [4] concerns Staphylococcus aureus FDA 209F JC-1. Described as above. Format: cell-based. The following applies: 37° C., 18-20 hrs. The method, then:
as §1, §2, §3, §4, §5

The subject of series [5] is Staphylococcus aureus SMITH. The series is described as above. The following applies: 37° C., 18-20 hrs. Format: cell-based. The method, then: as §1, §2, §3, §4, §5
Series [6] concerns Staphylococcus aureus SR14 (penicillin resistant). Described as above. Format: cell-based. The following applies: 37° C., 18-20 hrs. The protocol: as §1, §2, §3, §4, §5
Series [7] concerns Staphylococcus aureus SR1626 (methicillin resistant). The series is described as above. The following applies: 37° C., 18-20 hrs. Format: cell-based. The method, then: as §1, §2, §3, §4, §5
The test system of series [8] is Staphylococcus aureus SR3626 (methicillin resistant). The series is described as above. Format: cell-based. The following applies: 37° C., 18-20 hrs. The protocol:
as §1, §2, §3, §4, §5

The subject of series [9] is Streptococcus agalactica SR1247. Described as above. Format: cell-based. The following applies: agar dilution with 0.5% horse serum, 37° C., 18-20 hrs. The protocol: as §1, §2, §3, §4, §5
In series [10] the test system is Streptococcus faecalis SR1004. The series is described as above. Format: cell-based. The following applies: agar dilution with 0.5% horse serum, 37° C., 18-20 hrs. The protocol: as §1, §2, §3, §4, §5
Series [11] has as its system Streptococcus pneumoniae Type I. The description is as above. Format: cell-based. The following applies: agar dilution with 0.5% horse serum, 37° C., 18-20 hrs. The protocol:
as §1, §2, §3, §4, §5

For series [12], the system named is Streptococcus pyogenes C-203. The description is as above. Format: cell-based. The following applies: agar dilution with 0.5% horse serum, 37° C., 18-20 hrs. The protocol:
as §1, §2, §3, §4, §5

The subject of series [13] is Staphylococcus aureus SMITH. As to the kind of experiment: Protective test in mice (in vivo antibacterial activity). The following applies: Staphylococcus aureus SMITH i.p. challenge, Slc-ICR female mice; s.c. 1 and 5 hours post-infection; survival on day 7. The protocol:
(§6) Method: Test bacterium is intraperitoneally challenged to Slc-ICR female mice (8 mice/group), to which PA-42867-A and des-(4-epi-vancosaminyl) PA-42867-A (serial two fold dilution) are subcutaneously administered 1 and 5 hours post-infection.
(§7) Result: ED50 (50% effective dose) is calculated from survival rate of mice on day 7 after the infection.

Series [14] concerns Staphylococcus aureus SR2030 (methicillin-resistant). The description is as above. The following applies: Staphylococcus aureus SR2030 (methicillin-resistant) i.p. challenge, Slc-ICR female mice; s.c. 1 and 5 hours post-infection; survival on day 7. The protocol:
as §6, §7

Series [15] concerns Streptoccus pyogenes C-302. The description is as above. The following applies: Streptoccus pyogenes C-302 i.p. challenge, Slc-ICR female mice; s.c. 1 and 5 hours post-infection; survival on day 7. The method, then: as §6, §7
For series [16], the system named is Streptococcus pneumoniae Type I. Described as above. The following applies: Streptococcus pneumoniae Type I i.p. challenge, Slc-ICR female mice; s.c. 1 and 5 hours post-infection; survival on day 7. The method, then:
as §6, §7

The nature of series [17]: Solubility (physicochemical property).
[18] abbreviates: in ether, benzene, chloroform and ethyl acetate.

≈ marks a conversion by molar mass, not a printed value.

The MIC is the lowest concentration that inhibits growth of the organism. Regarding `CN[C@H](CC(C)C)C(=O)N[C@H]1C(=O)N[C@@H](CC(N)=O)C(=O)N[C@H]2C(=O)N[C@H]3C(=O)N[C@H](C(=O)N[C@H](C(=O)O)c4cc(O)cc(O)c4-c4cc3ccc4O)[C@H](O[C@H]3C[C@](C)(N)[C@@H](O)[C@H](C)O3)c3ccc(c(Cl)c3)Oc3cc2cc(c3O[C@@H]2O[C@H](CO)[C@@H](O)[C@H](O)[C@H]2O[C@H]2C[C@](C)(N)[C@@H](O)[C@H](C)O2)Oc2ccc(cc2)[C@H]1O` [Compd. A, PA-42867-A], the minimum inhibitory concentration (MIC) amounted to 0.39 µg/mL (≈ 0.25 µM) in [1]; 0.78 µg/mL (≈ 0.501 µM) in series [2]; 0.78 µg/mL (≈ 0.501 µM) in [3]; 0.39 µg/mL (≈ 0.25 µM) in [4]; 0.78 µg/mL (≈ 0.501 µM) in [5]; 0.78 µg/mL (≈ 0.501 µM) in series [6]. Besides, the minimal inhibitory concentration (MIC) in series [7] is 0.78 µg/mL (≈ 0.501 µM); in [8], 0.78 µg/mL (≈ 0.501 µM); in [9] it was 0.39 µg/mL (≈ 0.25 µM); in series [10] it was 1.56 µg/mL (≈ 1 µM); in series [11] it was 0.39 µg/mL (≈ 0.25 µM); in series [12] it was 0.39 µg/mL (≈ 0.25 µM). Further, the “ED50 (50% effective dose)” value was determined as 0.62 mg/kg/dose in [13], 2.31 mg/kg/dose in series [14], 0.64 mg/kg/dose in series [15] and 0.90 mg/kg/dose in series [16]. The Solubility result was “Slightly soluble” in [17] (in alcohol); “Insoluble” in [17] (setting [18]); “Soluble” in series [17] (in water and dimethylsulfoxide).

As to `CN[C@H](CC(C)C)C(=O)N[C@H]1C(=O)N[C@@H](CC(N)=O)C(=O)N[C@H]2C(=O)N[C@H]3C(=O)N[C@H](C(=O)N[C@H](C(=O)O)c4cc(O)cc(O)c4-c4cc3ccc4O)[C@H](O[C@H]3C[C@](C)(N)[C@@H](O)[C@H](C)O3)c3ccc(c(Cl)c3)Oc3cc2cc(c3O[C@@H]2O[C@H](CO)[C@@H](O)[C@H](O)[C@H]2O[C@H]2C[C@H](O)[C@@H](O)[C@H](C)O2)Oc2ccc(cc2)[C@H]1O` [Compd. B, PA-42867-B], the MIC in series [1] amounted to 1.56 µg/mL (≈ 1.01 µM); in [2], 1.56 µg/mL (≈ 1.01 µM); in series [3], 3.13 µg/mL (≈ 2.03 µM); in [4] it was 1.56 µg/mL (≈ 1.01 µM); in series [5] it was 3.13 µg/mL (≈ 2.03 µM); in series [6], 1.56 µg/mL (≈ 1.01 µM). For the same molecule, the MIC in series [7] came out at 1.56 µg/mL (≈ 1.01 µM); in [8] it was 1.56 µg/mL (≈ 1.01 µM); in series [9], 0.78 µg/mL (≈ 0.505 µM); in series [10] it was 3.13 µg/mL (≈ 2.03 µM); in series [11], 0.78 µg/mL (≈ 0.505 µM); in series [12] it was 0.78 µg/mL (≈ 0.505 µM). Also, the Solubility entry is listed as “Slightly soluble” in series [17] (in alcohol); “Insoluble” in series [17] (setting [18]); “Soluble” in series [17] (in water and dimethylsulfoxide).

Turning to `CN[C@H](CC(C)C)C(=O)N[C@H]1C(=O)N[C@@H](CC(N)=O)C(=O)N[C@H]2C(=O)N[C@H]3C(=O)N[C@H](C(=O)N[C@H](C(=O)O)c4cc(O)cc(O)c4-c4cc3ccc4O)[C@H](O[C@H]3C[C@](C)(N)[C@@H](O)[C@H](C)O3)c3ccc(c(Cl)c3)Oc3cc2cc(c3O[C@@H]2O[C@H](CO)[C@@H](O)[C@H](O)[C@H]2O)Oc2ccc(cc2)[C@H]1O` [Compd. C, des-(4-epi-vancosaminyl)-PA-42867-A], the MIC in [1] came to 0.78 µg/mL (≈ 0.551 µM); in [2] it was 1.56 µg/mL (≈ 1.1 µM); in [3] it was 1.56 µg/mL (≈ 1.1 µM); in series [4], 0.78 µg/mL (≈ 0.551 µM); in series [5] it was 1.56 µg/mL (≈ 1.1 µM); in series [6] it was 1.56 µg/mL (≈ 1.1 µM). The MIC in [7] was 1.56 µg/mL (≈ 1.1 µM); in [8], 1.56 µg/mL (≈ 1.1 µM); in series [9] it was 0.78 µg/mL (≈ 0.551 µM); in [10], 1.56 µg/mL (≈ 1.1 µM); in [11], 0.78 µg/mL (≈ 0.551 µM); in [12] it was 0.78 µg/mL (≈ 0.551 µM). In addition, the “ED50 (50% effective dose)” value turned out to be 1.47 mg/kg/dose in series [13], 2.91 mg/kg/dose in series [14], 1.43 mg/kg/dose in [15] and 2.11 mg/kg/dose in [16].

For `CN[C@H](CC(C)C)C(=O)N[C@H]1C(=O)N[C@@H](CC(N)=O)C(=O)N[C@H]2C(=O)N[C@H]3C(=O)N[C@H](C(=O)N[C@H](C(=O)O)c4cc(O)cc(O)c4-c4cc3ccc4O)[C@H](O[C@H]3C[C@](C)(N)[C@@H](O)[C@H](C)O3)c3ccc(c(Cl)c3)Oc3cc2cc(c3O)Oc2ccc(cc2)[C@H]1O` [Compd. D, des-(4-epi-vancosaminyl-O-glucosyl)-PA-42867-A], the minimum inhibitory concentration (MIC) in series [1] was determined as 0.78 µg/mL (≈ 0.623 µM); in [2], 0.78 µg/mL (≈ 0.623 µM); in series [3], 1.56 µg/mL (≈ 1.25 µM); in [4], 0.78 µg/mL (≈ 0.623 µM); in series [5], 0.78 µg/mL (≈ 0.623 µM); in series [6] it was 0.78 µg/mL (≈ 0.623 µM). The MIC amounted to 0.78 µg/mL (≈ 0.623 µM) in series [7]; 0.78 µg/mL (≈ 0.623 µM) in series [8]; 0.78 µg/mL (≈ 0.623 µM) in series [9]; 0.78 µg/mL (≈ 0.623 µM) in series [10]; 0.78 µg/mL (≈ 0.623 µM) in series [11]; 0.39 µg/mL (≈ 0.311 µM) in series [12].

The values are drawn from patent US4946941A, “Novel glycopeptide antibiotics” (Shionogi & Co., Ltd., priority 1986, dated 1990).
